From PubChem BioAssay (NCI)
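Cultured in 96-well plates, cells were exposed to test compound for 48 hours across five concentrations. TGI is the concentration that stops growth completely.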

How the values were obtained:
Experiment in all cases: DTP human tumour cell line panel, 48 h
786-0 renal = tested on: 786-0 renal
A549 NSCLC = tested on: A549 NSCLC
ACHN renal = tested on: ACHN renal
BT-549 breast = tested on: BT-549 breast
CAKI-1 renal = tested on: CAKI-1 renal
CCRF-CEM leukemia = tested on: CCRF-CEM leukemia
COLO 205 colon = tested on: COLO 205 colon
DU-145 prostate = tested on: DU-145 prostate
EKVX NSCLC = tested on: EKVX NSCLC
HCC-2998 colon = tested on: HCC-2998 colon
HCT-116 colon = tested on: HCT-116 colon
HCT-15 colon = tested on: HCT-15 colon
HL-60(TB) leukemia = tested on: HL-60(TB) leukemia
HOP-62 NSCLC = tested on: HOP-62 NSCLC
HOP-92 NSCLC = tested on: HOP-92 NSCLC
HS 578T breast = tested on: HS 578T breast
HT29 colon = tested on: HT29 colon
IGROV1 ovarian = tested on: IGROV1 ovarian
K-562 leukemia = tested on: K-562 leukemia
KM12 colon = tested on: KM12 colon
LOX IMVI melanoma = tested on: LOX IMVI melanoma
M14 melanoma = tested on: M14 melanoma
MALME-3M melanoma = tested on: MALME-3M melanoma
MCF7 breast = tested on: MCF7 breast
MDA-MB-231 breast = tested on: MDA-MB-231 breast
MDA-MB-435 = tested on: MDA-MB-435
MDA-N = tested on: MDA-N
MOLT-4 leukemia = tested on: MOLT-4 leukemia
NCI-H226 lung = tested on: NCI-H226 lung
NCI-H23 lung = tested on: NCI-H23 lung
NCI-H460 lung = tested on: NCI-H460 lung
NCI-H522 lung = tested on: NCI-H522 lung
NCI/ADR-RES ovarian = tested on: NCI/ADR-RES ovarian
OVCAR-3 ovarian = tested on: OVCAR-3 ovarian
OVCAR-4 ovarian = tested on: OVCAR-4 ovarian
OVCAR-5 ovarian = tested on: OVCAR-5 ovarian
OVCAR-8 ovarian = tested on: OVCAR-8 ovarian
PC-3 prostate = tested on: PC-3 prostate
RPMI-8226 leukemia = tested on: RPMI-8226 leukemia
RXF 393 renal = tested on: RXF 393 renal
SF-268 CNS = tested on: SF-268 CNS
SF-295 CNS = tested on: SF-295 CNS
SK-MEL-2 melanoma = tested on: SK-MEL-2 melanoma
SK-MEL-5 melanoma = tested on: SK-MEL-5 melanoma
SK-OV-3 ovarian = tested on: SK-OV-3 ovarian
SN12C renal = tested on: SN12C renal
SNB-19 CNS = tested on: SNB-19 CNS
SNB-75 CNS = tested on: SNB-75 CNS
SW-620 colon = tested on: SW-620 colon
T-47D breast = tested on: T-47D breast
TK-10 renal = tested on: TK-10 renal
U251 CNS = tested on: U251 CNS
UACC-257 melanoma = tested on: UACC-257 melanoma
UACC-62 melanoma = tested on: UACC-62 melanoma
UO-31 renal = tested on: UO-31 renal
A498 renal = tested on: A498 renal
SK-MEL-28 melanoma = tested on: SK-MEL-28 melanoma
SF-539 CNS = tested on: SF-539 CNS
SR leukemia = tested on: SR leukemia

Measured: TGI

COC(=O)[C@H](Cc1c[nH]c2ccccc12)NC(=O)OCC1OC(n2cc(C)c(=O)[nH]c2=O)CC1N=[N+]=[N-] (some centres not stated)
> 100 µM: 786-0 renal | A549 NSCLC | ACHN renal | BT-549 breast | CAKI-1 renal | CCRF-CEM leukemia | COLO 205 colon | DU-145 prostate | EKVX NSCLC | HCC-2998 colon | HCT-116 colon | HCT-15 colon | HL-60(TB) leukemia | HOP-62 NSCLC | HOP-92 NSCLC | HS 578T breast | HT29 colon | IGROV1 ovarian | K-562 leukemia | KM12 colon | LOX IMVI melanoma | M14 melanoma | MALME-3M melanoma | MCF7 breast | MDA-MB-231 breast | MDA-MB-435 | MDA-N | MOLT-4 leukemia | NCI-H226 lung | NCI-H23 lung | NCI-H460 lung | NCI-H522 lung | NCI/ADR-RES ovarian | OVCAR-3 ovarian | OVCAR-4 ovarian | OVCAR-5 ovarian | OVCAR-8 ovarian | PC-3 prostate | RPMI-8226 leukemia | RXF 393 renal | SF-268 CNS | SF-295 CNS | SK-MEL-2 melanoma | SK-MEL-5 melanoma | SK-OV-3 ovarian | SN12C renal | SNB-19 CNS | SNB-75 CNS | SW-620 colon | T-47D breast | TK-10 renal | U251 CNS | UACC-257 melanoma | UACC-62 melanoma | UO-31 renal

CO[C@]12C#CC=CC#C[C@@H](O)[C@]3(CCC1)O[C@@]23c1cccc(O)c1
> 100 µM: 786-0 renal | A498 renal | A549 NSCLC | ACHN renal | BT-549 breast | CAKI-1 renal | COLO 205 colon | DU-145 prostate | HCC-2998 colon | HCT-116 colon | HCT-15 colon | HOP-62 NSCLC | HS 578T breast | K-562 leukemia | KM12 colon | LOX IMVI melanoma | M14 melanoma | MCF7 breast | MDA-MB-231 breast | MDA-MB-435 | MDA-N | MOLT-4 leukemia | NCI-H226 lung | NCI-H23 lung | NCI-H460 lung | NCI/ADR-RES ovarian | OVCAR-3 ovarian | OVCAR-4 ovarian | OVCAR-5 ovarian | OVCAR-8 ovarian | PC-3 prostate | RPMI-8226 leukemia | RXF 393 renal | SF-268 CNS | SF-295 CNS | SK-MEL-2 melanoma | SK-MEL-28 melanoma | SK-OV-3 ovarian | SN12C renal | SNB-19 CNS | SNB-75 CNS | SW-620 colon | T-47D breast | TK-10 renal | U251 CNS | UACC-257 melanoma | UACC-62 melanoma | UO-31 renal

O=S(=O)(/N=C(\NO)Nc1ccc(Cl)cc1)c1cc2ccccc2o1
83 µM: HOP-62 NSCLC
29.3 µM: UACC-62 melanoma
36.7 µM: CAKI-1 renal
29 µM: HOP-92 NSCLC
41.9 µM: EKVX NSCLC
36.1 µM: SN12C renal
51.1 µM: COLO 205 colon
57.2 µM: OVCAR-5 ovarian
65.1 µM: SW-620 colon
62.3 µM: SK-OV-3 ovarian
37.5 µM: HL-60(TB) leukemia
25.7 µM: NCI-H522 lung
71.7 µM: NCI-H226 lung
30.9 µM: SK-MEL-5 melanoma
56 µM: OVCAR-4 ovarian
33.5 µM: KM12 colon
33.4 µM: U251 CNS
91.2 µM: UO-31 renal
35 µM: SK-MEL-28 melanoma
34.2 µM: HCT-15 colon
95 µM: RXF 393 renal
51.7 µM: UACC-257 melanoma
28.5 µM: OVCAR-3 ovarian
52.8 µM: HS 578T breast
34.8 µM: BT-549 breast
40.9 µM: MDA-MB-231 breast
45.2 µM: MALME-3M melanoma
55.7 µM: SF-268 CNS
30.7 µM: IGROV1 ovarian
59.6 µM: MDA-N
24.8 µM: HCT-116 colon
57.4 µM: CCRF-CEM leukemia
48 µM: NCI-H23 lung
47.2 µM: HT29 colon
47 µM: SF-295 CNS
69 µM: PC-3 prostate
49.6 µM: M14 melanoma
39.8 µM: OVCAR-8 ovarian
> 100 µM: A549 NSCLC | DU-145 prostate | K-562 leukemia | MOLT-4 leukemia | NCI-H460 lung | SF-539 CNS | SNB-19 CNS | SNB-75 CNS | T-47D breast | TK-10 renal
23.9 µM: LOX IMVI melanoma
55.1 µM: NCI/ADR-RES ovarian
39.3 µM: 786-0 renal
35.9 µM: SK-MEL-2 melanoma
46.1 µM: ACHN renal
29.7 µM: MDA-MB-435

O=C(O)c1cccc(CN2CCCCC2)c1
> 100 µM: 786-0 renal | A498 renal | A549 NSCLC | ACHN renal | BT-549 breast | CAKI-1 renal | CCRF-CEM leukemia | COLO 205 colon | DU-145 prostate | EKVX NSCLC | HCC-2998 colon | HCT-116 colon | HCT-15 colon | HOP-62 NSCLC | HS 578T breast | HT29 colon | IGROV1 ovarian | K-562 leukemia | KM12 colon | LOX IMVI melanoma | M14 melanoma | MALME-3M melanoma | MCF7 breast | MDA-MB-231 breast | MDA-MB-435 | MDA-N | MOLT-4 leukemia | NCI-H226 lung | NCI-H23 lung | NCI-H460 lung | NCI-H522 lung | NCI/ADR-RES ovarian | OVCAR-3 ovarian | OVCAR-4 ovarian | OVCAR-5 ovarian | OVCAR-8 ovarian | PC-3 prostate | RPMI-8226 leukemia | RXF 393 renal | SF-268 CNS | SF-295 CNS | SK-MEL-2 melanoma | SK-MEL-28 melanoma | SK-MEL-5 melanoma | SK-OV-3 ovarian | SN12C renal | SNB-19 CNS | SW-620 colon | T-47D breast | TK-10 renal | U251 CNS | UACC-257 melanoma | UACC-62 melanoma | UO-31 renal

COc1cc(C2CC(C)(N3CCCC3)Oc3cc4c(cc32)OCO4)cc(OC)c1OC (configuration not stated)
> 64 µM: TK-10 renal
17 µM: 786-0 renal
> 49.6 µM: NCI-H23 lung
21.9 µM: MDA-MB-231 breast
3.55 µM: PC-3 prostate
73.8 µM: SK-MEL-28 melanoma
2.19 µM: NCI-H522 lung
0.492 µM: HT29 colon
39 µM: SW-620 colon
> 100 µM: A549 NSCLC | ACHN renal | CAKI-1 renal | CCRF-CEM leukemia | COLO 205 colon | DU-145 prostate | EKVX NSCLC | HCT-116 colon | HOP-62 NSCLC | HOP-92 NSCLC | HS 578T breast | KM12 colon | M14 melanoma | NCI/ADR-RES ovarian | OVCAR-4 ovarian | OVCAR-5 ovarian | SK-MEL-2 melanoma | SNB-19 CNS | SR leukemia | T-47D breast | UO-31 renal
3.5 µM: NCI-H460 lung
> 51.2 µM: IGROV1 ovarian
> 50.7 µM: MALME-3M melanoma
45 µM: OVCAR-3 ovarian
0.468 µM: RXF 393 renal
15 µM: LOX IMVI melanoma
0.0909 µM: SF-295 CNS
> 82.4 µM: NCI-H226 lung
0.603 µM: SF-539 CNS
> 44.7 µM: OVCAR-8 ovarian
0.0552 µM: MDA-N
> 87.6 µM: SF-268 CNS
10.9 µM: K-562 leukemia
43.7 µM: SN12C renal
87.7 µM: BT-549 breast
17.9 µM: MCF7 breast
6.12 µM: A498 renal
6.14 µM: HCC-2998 colon
32.5 µM: UACC-257 melanoma
16.4 µM: U251 CNS
> 49.3 µM: MOLT-4 leukemia
